The values below come from patent US20220289732A1, “HETEROCYCLIC WDR5 INHIBITORS AS ANTI-CANCER COMPOUNDS” (NOVARTIS AG, priority 2019, published 2022).

Like-named read-outs stand apart in the source and are kept apart here.

The target of test [1] is wild type MLL1 four-member complex (MLL1-4C) (Homo sapiens, UniProt P61964). Briefly: MLL1 LC-MS assay (SAH production). The class given is biochemical. As to conditions: read-out: (b) MLL LCMS Peptide Val.v.1 Qualified AC50. The method in brief: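 MLL1-4C (30 nM final) was preincubated 20 min with compound (3-fold dilutions, 8 or 12 points) and SAM in Tris-HCl pH 8.0 buffer. H3K4me0 peptide (histone H3[1-21]-biotin) was then added, giving final 2.5 μM SAM and 10 μM substrate, and reactions ran 120 min at rt. After TFA/d4-SAH quench, SAH was quantified by LC-MS/MS and IC50 fitted from control-normalised activity.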

In another test the target is WDR5 (Homo sapiens, UniProt P61964). The experiment in a line: WDR5 HTRF binding assay. As to conditions: read-out: (a) WDR5 HTRF Pep Val v.1[Inhibitor/IC50]Qualified AC50. The method in brief: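 6 nM WDR5 and 20 nM biotin-MLL1 WIN peptide (3762-3773) were incubated with compound (12-point, 3-fold dilutions) in pH 7.5 Hepes/NaCl/DTT buffer for 20 min at rt. Streptavidin-APC plus anti-His-Eu were then added for 1 hr, with HTRF read at 665/615. IC50 was fit from control-normalized activity; the counter assay used 15 nM biotin-PEG-His peptide.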
For orientation: Time-resolved FRET reads energy transfer from a long-lived donor to a nearby acceptor.

In the next test the test system is MV4-11 cells. Briefly: MV4-11 6-day cell growth CTG (CellTiter-Glo) assay. The test is classed as cell-based. As to conditions: 6 days, read-out: (c) MLL/WDR5 cell proliferation assay//MLL/WDR5 proliferation MV4:11 Qualified AC50. The method in brief: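 Exponentially growing MV4-11 AML cells (RPMI 1640, 10% FBS) seeded at 300 cells/well with 12-point 1:3 compound dilutions, top final concentration 50 μM. Viability read by CellTiter-Glo luminescence after 6 days at 37° C; % inhibition vs DMSO-only wells fitted to dose-response for IC50.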
Background: ATP-based viability assays read luminescence as a measure of living cells.

Regarding `CCOc1cc([C@H](C)N2CCc3c(cc(CCN(C)CC)cc3-c3cn(C)c(=O)cc3C(F)(F)F)C2=O)ncc1F` [Example 204, (S)-2-(1-(4-ethoxy-5-fluompyridin-2-yl)ethyl)-7-(2-(ethyl(methyl)amino)ethyl)-5-(1-methyl-6-oxo-4-(trifluoromethyl)-1,6-dihydropyridin-3-yl)-3,4-dihydroisoquinolin-1(2H)-one], the AC50 (in test [1]; in the test with MV4-11 cells) was 10 to 1000 nM each time. Besides, the IC50 at WDR5 lay in the range of 10 to 1000 nM.
As to `CCOc1cc([C@H](C)N2CCc3c(cc(CCN(C)CC)cc3-c3cc(N)cnc3C)C2=O)ncc1C#N` [Example 187, (S)-6-(1-(5-(5-amino-2-methylpyridin-3-yl)-7-(2-(ethyl(methyl)amino)ethyl)-1-oxo-3,4-dihydroisoquinolin-2(1H)-yl)ethyl)-4-ethoxynicotinonitrile], the AC50 was in the range of 10 to 1000 nM in test [1] and 10 to 1000 nM in the test on MV4-11 cells (Homo sapiens, MV4-11, 144 h). Moreover, the IC50 at WDR5 was less than 10 nM.
Regarding `CCOc1cc([C@H](C)N2CCc3c(cc(Cn4ccnc4C)cc3-c3cn(C)c(=O)cc3Cl)C2=O)ncc1C#N` [Example 292], the AC50 in test [1] lay within 10 to 1000 nM; in the test with MV4-11 cells (Homo sapiens, MV4-11, 144 h), 10 to 1000 nM. Also, at WDR5, the IC50 was in the range of 10 to 1000 nM.
`CNc1nccn1Cc1cc2c(c(-c3cn(C)nc3C#N)c1)CCN(Cc1ccc(F)c(OC)c1)C2=O` [Example 77, 4-(2-(4-fluoro-3-methoxybenzyl)-7-((2-(methylamino)-1H-imidazol-1-yl)methyl)-1-oxo-1,2,3,4-tetrahydroisoquinolin-5-yl)-1-methyl-1H-pyrazole-3-carbonitrile]: the AC50 in test [1] lay in the range of 10 to 1000 nM; in the test with MV4-11 cells (Homo sapiens, MV4-11, 144 h), 10 to 1000 nM. Besides, the IC50 on WDR5 was 10 to 1000 nM.
Take `CCOc1cc([C@H](C)N2CCc3c(cc(Cn4ccnc4C)cc3-c3cn(C)c(=O)cc3C)C2=O)ncc1F` [Example 281]: the AC50 in test [1] fell in the range of 10 to 1000 nM; in the test with MV4-11 cells (Homo sapiens, MV4-11, 144 h), 10 to 1000 nM. For the same compound, the IC50 at WDR5 is less than 10 nM.
`CCOc1cc([C@H](C)N2CCc3c(cc(Cn4ccnc4NC)cc3C3CC3)C2=O)ncc1C#N` [Example 83, (S)-6-(1-(5-cyclopropyl-7-((2-(methylamino)-1H-imidazol-1-yl)methyl)-1-oxo-3,4-dihydroisoquinolin-2(1H)-yl)ethyl)-4-ethoxynicotinonitrile]: the AC50 in test [1] is 10 to 1000 nM; in the test with MV4-11 cells (Homo sapiens, MV4-11, 144 h), 10 to 1000 nM. Moreover, the IC50 on WDR5 was 10 to 1000 nM.
On to `CCn1nc(CN2CCc3c(cc(Cn4ccnc4NC)cc3C3CC3)C2=O)cc1OC` [Example 86, 5-cyclopropyl-2-((1-ethyl-5-methoxy-1H-pyrazol-3-yl)methyl)-7-((2-(methylamino)-1H-imidazol-1-yl)methyl)-3,4-dihydroisoquinolin-1(2H)-one], for which the AC50 lay within 10 to 1000 nM in test [1] and 10 to 1000 nM with MV4-11 cells (Homo sapiens, MV4-11, 144 h). Also, the IC50 on WDR5 lay in the range of 10 to 1000 nM.
Regarding `CCOc1cc([C@H](C)N2CCc3c(CN(C)C)cc(Cn4ccnc4C)cc3C2=O)ncc1C#N` [Example 295], the AC50 in test [1] was in the range of 10 to 1000 nM; in the test on MV4-11 cells (Homo sapiens, MV4-11, 144 h), 1000 to 25000 nM. Further, the IC50 on WDR5 is 10 to 1000 nM.
As for `CNc1nccn1Cc1cc2c(c(C(F)F)c1)CCN([C@@H](C)c1cc(OC)c(F)cn1)C2=O` [Example 92, (S)-5-(difluoromethyl)-2-(1-(5-fluoro-4-methoxypyridin-2-yl)ethyl)-7-((2-(methylamino)-1H-imidazol-1-yl)methyl)-3,4-dihydroisoquinolin-1(2H)-one], the AC50 in test [1] is 10 to 1000 nM; with MV4-11 cells (Homo sapiens, MV4-11, 144 h) it was 10 to 1000 nM. Also, the IC50 on WDR5 lay in the range of 10 to 1000 nM.
Turning to `CCOc1cc([C@@H](C)N2CCc3c(cc(CCN4C[C@@H](O)[C@H]4C)cc3-c3cc(C)ncc3C)C2=O)ncc1C#N` [Example 223], the AC50 fell in the range of 10 to 1000 nM in test [1] and 10 to 1000 nM in the test with MV4-11 cells (Homo sapiens, MV4-11, 144 h). Further, on WDR5, the IC50 fell in the range of 10 to 1000 nM.
Regarding `CCOc1cc(CN2CCc3c(cc(CCN(C)CC)cc3-c3cc(C)ncc3Cl)C2=O)ncc1C#N` [Example 133, 6-((5-(5-chloro-2-methylpyridin-4-yl)-7-(2-(ethyl(methyl)amino)ethyl)-1-oxo-3,4-dihydroisoquinolin-2(1H)-yl)methyl)-4-ethoxynicotinonitrile], the AC50 in test [1] fell in the range of 10 to 1000 nM; with MV4-11 cells (Homo sapiens, MV4-11, 144 h), 10 to 1000 nM. For the same compound, the IC50 at WDR5 was less than 10 nM.
On to `CCOc1cc(C(C)N2CCc3c(cc(CCN(C)CC)cc3C(O)C(C)(C)C)C2=O)ncc1C#N` (stereo not drawn) [compound 257], for which the AC50 lay in the range of 10 to 1000 nM in test [1] and 10 to 1000 nM in the test on MV4-11 cells (Homo sapiens, MV4-11, 144 h). Besides, the IC50 on WDR5 lay in the range of 10 to 1000 nM.
Turning to `CNc1nccn1Cc1cc2c(c(-c3cc(CO)cnc3Cl)c1)CCN(Cc1cccc(OC(F)F)c1)C2=O` [Example 73, 5-(2-chloro-5-(hydroxymethyl)pyridin-3-yl)-2-(3-(difluoromethoxy)benzyl)-7-((2-(methylamino)-1H-imidazol-1-yl)methyl)-3,4-dihydroisoquinolin-1(2H)-one], the AC50 in test [1] fell in the range of 10 to 1000 nM; in the test on MV4-11 cells (Homo sapiens, MV4-11, 144 h), 10 to 1000 nM. Moreover, the IC50 on WDR5 is 10 to 1000 nM.
Take `CNc1nccn1Cc1cc2c(c(-c3cc(CO)cnc3Cl)c1)CCN(Cc1ccc(F)c(OC)c1)C2=O` [Example 53, 5-(2-chloro-5-(hydroxymethyl)pyridin-3-yl)-2-(4-fluoro-3-methoxybenzyl)-7-((2-(methylamino)-1H-imidazol-1-yl)methyl)-3,4-dihydroisoquinolin-1(2H)-one]: the AC50 in test [1] lay within 10 to 1000 nM; in the test with MV4-11 cells (Homo sapiens, MV4-11, 144 h) it was 10 to 1000 nM. In addition, the IC50 on WDR5 is 10 to 1000 nM.
Regarding `CCOc1cc(C(C)N2CCc3c(cc(CCN(C)CC)cc3-c3ccc(Cl)nc3C)C2=O)ncc1C#N` (stereo not drawn) [Example 147, 6-(1-(5-(6-chloro-2-methylpyridin-3-yl)-7-(2-(ethyl(methyl)amino)ethyl)-1-oxo-3,4-dihydroisoquinolin-2(1H)-yl)ethyl)-4-ethoxynicotinonitrile], the AC50 in test [1] was in the range of 10 to 1000 nM; with MV4-11 cells (Homo sapiens, MV4-11, 144 h), 10 to 1000 nM. In addition, the IC50 on WDR5 lay within 10 to 1000 nM.
In the case of `CCOc1cc([C@H](C)N2CCc3c(CN4CC[C@H](F)C4)cc(Cn4ccnc4NC)cc3C2=O)ncc1C#N` [Example 9, 4-ethoxy-6-((S)-1-(5-(((S)-3-fluoropyrrolidin-1-yl)methyl)-7-((2-(methylamino)-1H-imidazol-1-yl)methyl)-1-oxo-3,4-dihydroisoquinolin-2(1H)-yl)ethyl)nicotinonitrile], the AC50 fell in the range of 10 to 1000 nM in test [1] and 10 to 1000 nM in the test with MV4-11 cells (Homo sapiens, MV4-11, 144 h). Also, the IC50 at WDR5 is less than 10 nM.
In the case of `CCOc1cc([C@H](C)N2CCc3c(cc(CCN(C)CC)cc3-c3cc(C)cnc3C(F)F)C2=O)ncc1C#N` [Example 128, (S)-6-(1-(5-(2-(difluoromethyl)-5-methylpyridin-3-yl)-7-(2-(ethyl(methyl)amino)ethyl)-1-oxo-3,4-dihydroisoquinolin-2(1H)-yl)ethyl)-4-ethoxynicotinonitrile], the AC50 was 10 to 1000 nM in test [1] and 10 to 1000 nM with MV4-11 cells (Homo sapiens, MV4-11, 144 h). The IC50 at WDR5 was less than 10 nM.
As to `CNc1nccn1Cc1cc(CN(C)C)c2c(c1)C(=O)N([C@@H](C)c1cc(OC)c(C#N)cn1)CC2` [Example 45, (S)-6-(1-(5-((dimethylamino)methyl)-7-((2-(methylamino)-1H-imidazol-1-yl)methyl)-1-oxo-3,4-dihydroisoquinolin-2(1H)-yl)ethyl)-4-methoxynicotinonitrile], the AC50 in test [1] fell in the range of 10 to 1000 nM; with MV4-11 cells (Homo sapiens, MV4-11, 144 h), 10 to 1000 nM. For the same compound, the IC50 on WDR5 lay within 10 to 1000 nM.
Regarding `CCOc1cc([C@H](C)N2CCc3c(cc(Cn4ccnc4C)cc3-c3cn(C(F)F)nc3C)C2=O)ncc1C#N` [Example 286], the AC50 in test [1] was 10 to 1000 nM; with MV4-11 cells (Homo sapiens, MV4-11, 144 h), less than 10 nM. Also, the IC50 at WDR5 was less than 10 nM.
Turning to `CCOc1cc([C@H](C)N2CCc3c(CN(C)C4CC4)cc(Cn4ccnc4NC)cc3C2=O)ncc1C#N` [Example 18, (S)-6-(1-(5-((cyclopropyl(methyl)amino)methyl)-7-((2-(methylamino)-1H-imidazol-1-yl)methyl)-1-oxo-3,4-dihydroisoquinolin-2(1H)-yl)ethyl)-4-ethoxynicotinonitrile], the AC50 in test [1] fell in the range of 10 to 1000 nM; in the test on MV4-11 cells (Homo sapiens, MV4-11, 144 h) it was 10 to 1000 nM. The IC50 on WDR5 was in the range of 10 to 1000 nM.
As for `CCOc1cc([C@H](C)N2CCc3c(cc(Cn4cc(C)nc4C)cc3-c3cn(CCO)nc3C)C2=O)ncc1C#N` [Example 272], the AC50 lay in the range of 10 to 1000 nM in test [1] and 10 to 1000 nM in the test on MV4-11 cells (Homo sapiens, MV4-11, 144 h). The IC50 at WDR5 is less than 10 nM.
Consider `CNc1nccn1Cc1cc2c(c(-c3cc(CO)ccc3Cl)c1)CCN(Cc1ccc(F)c(OC)c1)C2=O` [Example 65, 5-(2-chloro-5-(hydroxymethyl)phenyl)-2-(4-fluoro-3-methoxybenzyl)-7-((2-(methylamino)-1H-imidazol-1-yl)methyl)-3,4-dihydroisoquinolin-1(2H)-one], for which the AC50 in test [1] is 10 to 1000 nM; in the test with MV4-11 cells (Homo sapiens, MV4-11, 144 h) it was 10 to 1000 nM. For the same compound, the IC50 on WDR5 was in the range of 10 to 1000 nM.
As for `CCOc1cc([C@H](C)N2CCc3c(cc(Cn4ccnc4C)cc3[C@H]3CCCN3C)C2=O)ncc1C#N` (single isomer, unassigned) [Example 267], the AC50 was 10 to 1000 nM in test [1] and 10 to 1000 nM in the test on MV4-11 cells (Homo sapiens, MV4-11, 144 h). The IC50 on WDR5 was less than 10 nM.
For the compound `CCOc1cc(C(C)N2CCc3c(cc(CCN(C)CCF)cc3-c3cn(C)c(=O)cc3Cl)C2=O)ncc1C#N` (stereo not drawn) [Example 237], the AC50 in test [1] fell in the range of 10 to 1000 nM; in the test with MV4-11 cells (Homo sapiens, MV4-11, 144 h) it was 10 to 1000 nM. In addition, the IC50 on WDR5 was less than 10 nM.
